Reference: ChEMBL document CHEMBL3885881, “DrugMatrix”

Species on record: Rattus norvegicus
Experiment: DrugMatrix - Regimen: Daily Repeat
Format: toxicity, organism-based, Sprague-Dawley
Design: regimen Daily Repeat, gender Male, age 6-8 weeks
Details: in vivo, po, route oral GAVAGE, vehicle 100 % WATER; for ABSOLUTE BASOPHIL / ABSOLUTE EOSINOPHIL / ABSOLUTE LYMPHOCYTE / ABSOLUTE MONOCYTE / ABSOLUTE SEGMENTED NEUTROPHIL / BASOPHIL / EOSINOPHIL / ERYTHROCYTE COUNT / HEMATOCRIT / HEMOGLOBIN / LEUKOCYTE COUNT / LYMPHOCYTE / MEAN CORPUSCULAR HEMOGLOBIN / MEAN CORPUSCULAR HEMOGLOBIN CONCENTRATION / MONOCYTE / NEUTROPHIL / NUCLEATED RED BLOOD CELLS / PLATELET COUNT: tissue Blood; for ALANINE AMINOTRANSFERASE / ALBUMIN / ALKALINE PHOSPHATASE / ASPARTATE AMINOTRANSFERASE / BLOOD UREA NITROGEN / CARBON DIOXIDE / CHLORIDE / CHOLESTEROL / CREATINE PHOSPHOKINASE / CREATININE / GLUCOSE / LACTATE DEHYDROGENASE / LIPASE / PHOSPHORUS / POTASSIUM / SODIUM / TOTAL BILIRUBIN / TOTAL PROTEIN / URIC ACID: tissue Plasma
[1] = 0 mg/kg, 72 h, dose level Control, time 3 day
[2] = 0 mg/kg, 120 h, dose level Control, time 5 day
[3] = 35 mg/kg, 72 h, dose level Low, time 3 day

Nc1ccn([C@@H]2CS[C@H](CO)O2)c(=O)n1 [LAMIVUDINE]
ABSOLUTE BASOPHIL [1]: 0 CELLS/uL | ABSOLUTE EOSINOPHIL [1]: 0 CELLS/uL | ABSOLUTE LYMPHOCYTE [1]: 8482.5 CELLS/uL | ABSOLUTE MONOCYTE [1]: 63.83 CELLS/uL | ABSOLUTE SEGMENTED NEUTROPHIL [1]: 887 CELLS/uL | BASOPHIL [1]: 0% | EOSINOPHIL [1]: 0% | ERYTHROCYTE COUNT [1]: 5.49 x10E6/uL | HEMATOCRIT [1]: 34.5% | HEMOGLOBIN [1]: 13.33 G/DL | LEUKOCYTE COUNT [1]: 9.43 x10E3/uL | LYMPHOCYTE [1]: 90.17% | MEAN CORPUSCULAR HEMOGLOBIN [1]: 24.3 pg | MEAN CORPUSCULAR HEMOGLOBIN CONCENTRATION [1]: 38.63 G/DL | MONOCYTE [1]: 0.67% | NEUTROPHIL [1]: 9.17% | NUCLEATED RED BLOOD CELLS [1]: 0.67 /100WBC | PLATELET COUNT [1]: 1022.83 x10E3/uL | ALANINE AMINOTRANSFERASE [1]: 50.5 u/L | ALBUMIN [1]: 4.08 G/DL | ALKALINE PHOSPHATASE [1]: 368.33 u/L | ASPARTATE AMINOTRANSFERASE [1]: 87.5 u/L | BLOOD UREA NITROGEN [1]: 12.83 mg/dL | CARBON DIOXIDE [1]: 32.83 mmol/L | CHLORIDE [1]: 99.67 MEQ/L | CHOLESTEROL [1]: 79.67 mg/dL | CREATINE PHOSPHOKINASE [1]: 585 u/L | CREATININE [1]: 0.22 mg/dL | GLUCOSE [1]: 135.67 mg/dL | LACTATE DEHYDROGENASE [1]: 171 u/L | LIPASE [1]: 9.5 u/L | PHOSPHORUS [1]: 11.18 mg/dL | POTASSIUM [1]: 6.25 MEQ/L | SODIUM [1]: 144.87 MEQ/L | TOTAL BILIRUBIN [1]: 0.2 mg/dL | TOTAL PROTEIN [1]: 6.08 G/DL | URIC ACID [1]: 0.65 mg/dL | ABSOLUTE BASOPHIL [2]: 0 CELLS/uL | ABSOLUTE EOSINOPHIL [2]: 14.5 CELLS/uL | ABSOLUTE LYMPHOCYTE [2]: 7596.17 CELLS/uL | ABSOLUTE MONOCYTE [2]: 69.67 CELLS/uL | ABSOLUTE SEGMENTED NEUTROPHIL [2]: 503 CELLS/uL | BASOPHIL [2]: 0% | EOSINOPHIL [2]: 0.17% | ERYTHROCYTE COUNT [2]: 5.49 x10E6/uL | HEMATOCRIT [2]: 34.72% | HEMOGLOBIN [2]: 13.47 G/DL | LEUKOCYTE COUNT [2]: 8.18 x10E3/uL | LYMPHOCYTE [2]: 92.17% | MEAN CORPUSCULAR HEMOGLOBIN [2]: 24.57 pg | MEAN CORPUSCULAR HEMOGLOBIN CONCENTRATION [2]: 38.82 G/DL | MONOCYTE [2]: 1% | NEUTROPHIL [2]: 6.67% | NUCLEATED RED BLOOD CELLS [2]: 0 /100WBC | PLATELET COUNT [2]: 1141 x10E3/uL | ALANINE AMINOTRANSFERASE [2]: 48.33 u/L | ALBUMIN [2]: 4.07 G/DL | ALKALINE PHOSPHATASE [2]: 395.67 u/L | ASPARTATE AMINOTRANSFERASE [2]: 85.67 u/L | BLOOD UREA NITROGEN [2]: 15.83 mg/dL | CARBON DIOXIDE [2]: 31.33 mmol/L | CHLORIDE [2]: 100.83 MEQ/L | CREATINE PHOSPHOKINASE [2]: 248.33 u/L | CREATININE [2]: 0.2 mg/dL | GLUCOSE [2]: 135.67 mg/dL | LACTATE DEHYDROGENASE [2]: 141.33 u/L | LIPASE [2]: 9.5 u/L | PHOSPHORUS [2]: 10.73 mg/dL | POTASSIUM [2]: 6.07 MEQ/L | SODIUM [2]: 145.35 MEQ/L | TOTAL BILIRUBIN [2]: 0.22 mg/dL | TOTAL PROTEIN [2]: 6.12 G/DL | URIC ACID [2]: 0.63 mg/dL | ABSOLUTE BASOPHIL [3]: 0 CELLS/uL | ABSOLUTE EOSINOPHIL [3]: 40.67 CELLS/uL | ABSOLUTE LYMPHOCYTE [3]: 11136 CELLS/uL | ABSOLUTE MONOCYTE [3]: 119.67 CELLS/uL | ABSOLUTE SEGMENTED NEUTROPHIL [3]: 470.33 CELLS/uL | BASOPHIL [3]: 0% | EOSINOPHIL [3]: 0.33% | ERYTHROCYTE COUNT [3]: 5.47 x10E6/uL | HEMATOCRIT [3]: 34.33% | HEMOGLOBIN [3]: 13.4 G/DL | LEUKOCYTE COUNT [3]: 11.77 x10E3/uL | LYMPHOCYTE [3]: 94.67% | MEAN CORPUSCULAR HEMOGLOBIN [3]: 24.5 pg | MEAN CORPUSCULAR HEMOGLOBIN CONCENTRATION [3]: 39.03 G/DL | MONOCYTE [3]: 1% | NEUTROPHIL [3]: 4% | NUCLEATED RED BLOOD CELLS [3]: 0 /100WBC | PLATELET COUNT [3]: 1274 x10E3/uL | ALANINE AMINOTRANSFERASE [3]: 51.67 u/L | ALBUMIN [3]: 4.27 G/DL | ALKALINE PHOSPHATASE [3]: 390.33 u/L | ASPARTATE AMINOTRANSFERASE [3]: 80.67 u/L | BLOOD UREA NITROGEN [3]: 12.33 mg/dL | CARBON DIOXIDE [3]: 34.33 mmol/L | CHLORIDE [3]: 98.33 MEQ/L | CHOLESTEROL [3]: 78 mg/dL | CREATINE PHOSPHOKINASE [3]: 237.33 u/L | CREATININE [3]: 0.2 mg/dL | GLUCOSE [3]: 124.67 mg/dL | LACTATE DEHYDROGENASE [3]: 167.33 u/L | LIPASE [3]: 10 u/L | PHOSPHORUS [3]: 10.9 mg/dL | POTASSIUM [3]: 6.42 MEQ/L | SODIUM [3]: 144.2 MEQ/L | TOTAL BILIRUBIN [3]: 0.13 mg/dL | URIC ACID [3]: 0.87 mg/dL
